Measured values published in US9796741B2 (Achillion Pharmaceuticals, Inc., priority 2014, dated 2017).
Read-outs that look alike come from different tables or passages of the source.

Molecular target: Human factor D (Homo sapiens (Human), UniProt P00746)
Test: Human Factor D Assay
Assay type: biochemical
Procedure: Human factor D (purified from human serum, Complement Technology, Inc.) at 80 nM final concentration is incubated with test compound at various concentrations for 5 minutes at room temperature in 50 mM Tris, 1M NaCl, pH 7.5. A synthetic substrate Z-L-Lys-SBzl and DTNB (Ellman's reagent) are added to final concentrations of 100 μM each. The increase in color is recorded at OD405 nm in a microplate in kinetic mode over 30 minutes with 30 second time points in a spectrofluorimeter. IC50 values are calculated by non-linear regression from the percentage of inhibition of complement factor D activity as a function of test compound concentration.

[1] = human factor D 80 nM, substrate Z-L-Lys-SBzl, DTNB

Human factor D, sequence (P00746 26-253): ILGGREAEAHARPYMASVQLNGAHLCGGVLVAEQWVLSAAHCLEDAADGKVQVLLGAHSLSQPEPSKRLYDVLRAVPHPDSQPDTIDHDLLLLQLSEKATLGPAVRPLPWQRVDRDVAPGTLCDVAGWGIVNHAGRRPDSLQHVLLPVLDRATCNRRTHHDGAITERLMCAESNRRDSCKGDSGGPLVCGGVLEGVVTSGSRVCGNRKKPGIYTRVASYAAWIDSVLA

Row | SMILES | IC50 [1] | IC50
1 | CC(=O)c1cn(CC(=O)N2C[C@H](F)C[C@H]2C(=O)Nc2cccc(-c3ccccc3Cl)c2F)c2ccc(N3CCN(c4ncc(F)cn4)CC3)cc12 [Compound 32, (2S,4R)-1-(2-(3-acetyl-5-(4-(5-fluoropyrimidin-2-yl)piperazin-1-yl)-1H-indol-1-yl)acetyl)-N-(2′-chloro-2-fluorobiphenyl-3-yl)-4-fluoropyrrolidine-2-carboxamide] | < 1 µM | –
2 | CC(=O)c1cn(CC(=O)N2C[C@H](F)C[C@H]2C(=O)Nc2cccc(-c3ccccc3Cl)c2F)c2ccc(N3CCN(S(C)(=O)=O)CC3)cc12 [Compound 33, (2S,4R)-1-(2-(3-acetyl-5-(4-(methylsulfonyl)piperazin-1-yl)-1H-indol-1-yl)acetyl)-N-(2′-chloro-2-fluorobiphenyl-3-yl)-4-fluoropyrrolidine-2-carboxamide] | < 1 µM | –
3 | CC(=O)c1cn(CC(=O)N2C[C@H](F)C[C@H]2C(=O)Nc2ccccc2-c2nc3ccccc3s2)c2ccc(-c3ccnnc3)cc12 [Compound 34, (2S,4R)-1-(2-(3-acetyl-5-(pyridazin-4-yl)-1H-indol-1-yl)acetyl)-N-(2-(benzo[d]thiazol-2-yl)phenyl)-4-fluoropyrrolidine-2-carboxamide] | > 10 µM | –
4 | CC(=O)c1cn(CC(=O)N2C[C@H](F)C[C@H]2C(=O)NCc2ccccn2)c2ccc(-c3ccnnc3)cc12 [Compound 38, (2S,4R)-1-(2-(3-acetyl-5-(pyridazin-4-yl)-1H-indol-1-yl)acetyl)-4-fluoro-N-(pyridin-2-ylmethyl)pyrrolidine-2-carboxamide] | < 1 µM | –
5 | NC(=O)c1nn(CC(=O)N2C[C@H](F)C[C@H]2C(=O)NCc2cccnc2)c2ccc(-c3ccnnc3)cc12 [Compound 39, 1-(2-((2S,4R)-4-fluoro-2-(pyridin-3-ylmethylcarbamoyl)pyrrolidin-1-yl)-2-oxoethyl)-5-(pyridazin-4-yl)-1H-indazole-3-carboxamide] | – | 1 to 10 µM
6 | CC(=O)c1cn(CC(=O)N2C[C@H](F)C[C@H]2C(=O)Nc2noc3cc(C(F)(F)F)ccc23)c2ccc(-c3ccnnc3)cc12 [Compound 42, (2S,4R)-1-(2-(3-acetyl-5-(pyridazin-4-yl)-1H-indol-1-yl)acetyl)-4-fluoro-N-(6-(trifluoromethyl)benzo [d]isoxazol-3-yl)pyrrolidine-2-carboxamide] | > 10 µM | –
7 | CC(=O)c1cn(CC(=O)N2C[C@H](F)C[C@H]2C(=O)NCc2cccc(Cl)c2)c2ccc(-c3ccnnc3)cc12 [Compound 44, (2S,4R)-1-(2-(3-acetyl-5-(pyridazin-4-yl)-1H-indol-1-yl)acetyl)-N-(3-chlorobenzyl)-4-fluoropyrrolidine-2-carboxamide] | < 1 µM | –
8 | NC(=O)c1nn(CC(=O)N2C[C@H](F)C[C@H]2C(=O)NCc2cccc(Cl)c2)c2ccc(-c3ccnnc3)cc12 [Compound 45, 1-(2-((2S,4R)-2-(3-chlorobenzylcarbamoyl)-4-fluoropyrrolidin-1-yl)-2-oxoethyl)-5-(pyridazin-4-yl)-1H-indazole-3-carboxamide] | < 1 µM | –
9 | CC(=O)c1cn(CC(=O)N2C[C@H](F)C[C@H]2C(=O)NCc2cc(F)cc(Cl)c2)c2ccc(-c3ccnnc3)cc12 [Compound 46, (2S,4R)-1-(2-(3-acetyl-5-(pyridazin-4-yl)-1H-indol-1-yl)acetyl)-N-(3-chloro-5-fluorobenzyl)-4-fluoropyrrolidine-2-carboxamide] | < 1 µM | –
10 | NC(=O)c1nn(CC(=O)N2C[C@H](F)C[C@H]2C(=O)Nc2cccnc2)c2ccc(-c3ccnnc3)cc12 [Compound 47, 1-(2-((2S,4R)-4-fluoro-2-(pyridin-3-ylcarbamoyl)pyrrolidin-1-yl)-2-oxoethyl)-5-(pyridazin-4-yl)-1H-indazole-3-carboxamide] | > 10 µM | –
11 | CCN1Cc2ccc(NC(=O)[C@@H]3C[C@@H](F)CN3C(=O)Cn3nc(C(N)=O)c4cc(-c5ccnnc5)ccc43)cc2C1=O [Compound 48, 1-(2-((2S,4R)-2-(2-ethyl-3-oxoisoindolin-5-ylcarbamoyl)-4-fluoropyrrolidin-1-yl)-2-oxoethyl)-5-(pyridazin-4-yl)-1H-indazole-3-carboxamide] | > 10 µM | –
12 | CCN1Cc2ccc(NC(=O)[C@@H]3C[C@@H](F)CN3C(=O)Cn3cc(C(C)=O)c4cc(-c5ccnnc5)ccc43)cc2C1=O [Compound 49, (2S,4R)-1-(2-(3-acetyl-5-(pyridazin-4-yl)-1H-indol-1-yl)acetyl)-N-(2-ethyl-3-oxoisoindolin-5-yl)-4-fluoropyrrolidine-2-carboxamide] | – | 1 to 10 µM
13 | NC(=O)c1nn(CC(=O)N2C[C@H](F)C[C@H]2C(=O)Nc2ccc3ncsc3c2)c2ccc(-c3ccnnc3)cc12 [Compound 50, 1-(2-((2S,4R)-2-(benzo[d]thiazol-6-ylcarbamoyl)-4-fluoropyrrolidin-1-yl)-2-oxoethyl)-5-(pyridazin-4-yl)-1H-indazole-3-carboxamide] | > 10 µM | –
14 | NC(=O)c1nn(CC(=O)N2C[C@H](F)C[C@H]2C(=O)N[C@@H]2CCC[C@@H]2OCc2ccccc2)c2ccc(-c3ccnnc3)cc12 [Compound 51, 1-(2-((2S,4R)-2-((1R,2S)-2-(benzyloxy)cyclopentylcarbamoyl)-4-fluoropyrrolidin-1-yl)-2-oxoethyl)-5-(pyridazin-4-yl)-1H-indazole-3-carboxamide] | > 10 µM | –
15 | NC(=O)c1nn(CC(=O)N2C[C@H](F)C[C@H]2C(=O)NCc2nc3ccccc3s2)c2ccc(-c3ccnnc3)cc12 [Compound 52, 1-(2-((2S,4R)-2-(benzo[d]thiazol-2-ylmethylcarbamoyl)-4-fluoropyrrolidin-1-yl)-2-oxoethyl)-5-(pyridazin-4-yl)-1H-indazole-3-carboxamide] | > 10 µM | –
16 | CC(=O)c1cn(CC(=O)N2C[C@H](F)C[C@H]2C(=O)Nc2nc(-c3ccc4c(c3)CCCC4)cs2)c2ccc(-c3ccnnc3)cc12 [Compound 54, (2S,4R)-1-(2-(3-acetyl-5-(pyridazin-4-yl)-1H-indol-1-yl)acetyl)-4-fluoro-N-(4-(5,6,7,8-tetrahydronaphthalen-2-yl)thiazol-2-yl)pyrrolidine-2-carboxamide] | > 10 µM | –
17 | NC(=O)c1nn(CC(=O)N2C[C@H](F)C[C@H]2C(=O)Nc2nc(-c3ccc4c(c3)CCCC4)cs2)c2ccc(-c3ccnnc3)cc12 [Compound 55, 1-(2-((2S,4R)-4-fluoro-2-(4-(5,6,7,8-tetrahydronaphthalen-2-yl)thiazol-2-ylcarbamoyl)pyrrolidin-1-yl)-2-oxoethyl)-5-(pyridazin-4-yl)-1H-indazole-3-carboxamide] | > 10 µM | –
18 | CC(=O)c1cn(CC(=O)N2C[C@H](F)C[C@H]2C(=O)Nc2nc(-c3c(C)nc4sccn34)cs2)c2ccc(-c3ccnnc3)cc12 [Compound 57, (2S,4R)-1-(2-(3-acetyl-5-(pyridazin-4-yl)-1H-indol-1-yl)acetyl)-4-fluoro-N-(4-(6-methylimidazo[2,1-b]thiazol-5-yl)thiazol-2-yl)pyrrolidine-2-carboxamide] | > 10 µM | –
19 | CC(=O)c1cn(CC(=O)N2C[C@H](F)C[C@H]2C(=O)NCc2cccnc2)c2ccc(-c3ccnnc3)cc12 [Compound 59, (2S,4R)-1-(2-(3-acetyl-5-(pyridazin-4-yl)-1H-indol-1-yl)acetyl)-4-fluoro-N-(pyridin-3-ylmethyl)pyrrolidine-2-carboxamide] | – | 1 to 10 µM
20 | CC(=O)c1cn(CC(=O)N2C[C@H](F)C[C@H]2C(=O)Nc2ccc(CNC(=O)OCC3c4ccccc4-c4ccccc43)cc2)c2ccc(-c3ccnnc3)cc12 [Compound 61] | > 10 µM | –
